Source: patent US9274101B2 (BIOLOG, Inc., priority 2001, dated 2016)

Tests used:
E. coli MG1655 = type: cell-based, Escherichia coli
HL-60 cells = assay: HL-60 responses to selected compounds at a range of concentrations; type: cell-based, human; conditions: Homo sapiens, HL-60, read-out: HL-60 Cell Responses to Selected Compounds from PM1 and PM2; for activity at 30 µM: Conc. 0.03 mM; for activity at 100 µM: Conc. 0.10 mM; for activity at 330 µM: Conc. 0.33 mM; for activity at 1000 µM: Conc. 1.00 mM; for activity at 3300 µM: Conc. 3.3 mM; for activity at 10000 µM: Conc. 10 mM; for activity at 15000 µM: Conc. 15 mM; for activity at 20000 µM: Conc. 20 mM
In short: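 Washed HL-60 cells (5×10^4/well) in DME-R were exposed to test energy sources at final 0.033 to 20 mM for 24 h at 37 °C, then MTS/MPMS was added for a further 24 h. OD490 (ref 650 nm) was corrected with cell-free control plates and normalized to % of no-energy-source control.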

[1] = test system: Undifferentiated HL-60 cells; assay: Energy use by undifferentiated HL-60 cells; type: cell-based, human; conditions: Homo sapiens, HL-60, 24 h, read-out: Energy Use by Undifferentiated HL-60 Cells; for activity at 30 µM: Conc. 0.03 mM; for activity at 100 µM: Conc. 0.10 mM; for activity at 330 µM: Conc. 0.33 mM; for activity at 1000 µM: Conc. 1.00 mM; for activity at 3300 µM: Conc. 3.3 mM; for activity at 10000 µM: Conc. 10 mM; for activity at 15000 µM: Conc. 15 mM; for activity at 20000 µM: Conc. 20 mM
[2] = test system: DMSO-differentiated HL-60 cells; assay: Energy use by DMSO-differentiated HL-60 cells; type: cell-based, human; conditions: for activity at 30 µM / activity at 100 µM / activity at 330 µM / activity at 1000 µM / activity at 3300 µM / activity at 10000 µM / activity at 15000 µM / activity at 20000 µM: Homo sapiens, HL-60, 24 h, read-out: Energy Use by DMSO-Differentiated HL-60 Cells; for activity at 30 µM: Conc. 0.03 mM; for activity at 100 µM: Conc. 0.10 mM; for activity at 330 µM: Conc. 0.33 mM; for activity at 1000 µM: Conc. 1.00 mM; for activity at 3300 µM: Conc. 3.3 mM; for activity at 10000 µM: Conc. 10 mM; for activity at 15000 µM: Conc. 15 mM; for activity at 20000 µM: Conc. 20 mM
In short: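 HL-60 cells, […] differentiated with 1.25% DMSO for 3 days, were plated at 5×10^4/well in DME-R with test energy sources at 0.033–20 mM final for 24 h at 37 °C. Viability was measured by MTS/PMS at 490 nm (ref 650 nm) 24 h after reagent addition. Values were background-subtracted using cell-free plates and expressed as % of the no-energy-source control.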

Row | Structure (SMILES) | suitability as nitrogen source (growth, purple color) (E. coli MG1655) | activity at 30 µM (HL-60 cells) | activity at 100 µM (HL-60 cells) | activity at 330 µM (HL-60 cells) | activity at 1000 µM (HL-60 cells) | activity at 3300 µM (HL-60 cells) | activity at 10000 µM (HL-60 cells) | activity at 15000 µM (HL-60 cells) | activity at 20000 µM (HL-60 cells) | activity at 30 µM [1] | activity at 100 µM [1] | activity at 330 µM [1] | activity at 1000 µM [1] | activity at 3300 µM [1] | activity at 10000 µM [1] | activity at 15000 µM [1] | activity at 20000 µM [1] | activity at 30 µM [2] | activity at 100 µM [2] | activity at 330 µM [2] | other results
1 | CC(C)[C@H](N)C(=O)O [L-valine] | not suitable | 117% | 137% | 134% | 135% | 133% | 125% | 122% | 112% | 89.6% | 93.2% | 83.8% | 78.6% | 86.4% | 89% | 97.7% | 104% | 81.1% | 89.4% | 85.2% | activity at 1000 µM [2]: 86.7%; activity at 3300 µM [2]: 81.2%; activity at 10000 µM [2]: 89.3%; activity at 15000 µM [2]: 81.4%; activity at 20000 µM [2]: 88.6%
2 | Cc1cn([C@H]2C[C@H](O)[C@@H](CO)O2)c(=O)[nH]c1=O [Thymidine] | not suitable | 121% | 125% | 128% | 134% | 129% | 106% | 91.5% | 68.5% | 84.1% | 106% | 101% | 90.9% | 111% | 80.3% | 81.3% | 52.3% | 96% | 112% | 143% | energy source use in words ([2]; DMSO-differentiated HL-60 cells): able to utilize thymidine at concentrations of 0.1-15 mM; activity at 1000 µM [2]: 165%; activity at 3300 µM [2]: 173%; activity at 10000 µM [2]: 160%; activity at 15000 µM [2]: 160%; activity at 20000 µM [2]: 103%
